The nature of data set [1]: Half life in po dosed human. It is filed as ADME, organism-based. As to conditions: in vivo.
The nature of data set [2]: Tmax in po dosed human. It is filed as ADME, organism-based. The following applies: in vivo.
Data set [3] concerns JM1. Briefly: Cytotoxicity against human JM1 cells. Type of data set: cell-based.
Data set [4] has as its system Human immunodeficiency virus 1. Briefly: Antiviral activity against HIV1 infected in human JM1 cells. As to conditions: Human immunodeficiency virus 1, JM1. Type of data set: functional, cell-based.
Data set [5] can be described thus: Cytotoxicity against human primary macrophages after 4 to 5 days by Cell-Titer Glo viability assay. Type of data set: cell-based, Macrophage.
Data set [6] deals with Ebolavirus. Briefly: Antiviral activity against Ebolavirus H. sapiens-tc/COD/1995/Kikwit infected in rhesus monkey assessed as host survival at 3 mg/kg, iv administered as bolus dose. As to conditions: Orthoebolavirus, in Macaca mulatta. It is filed as functional.
Data set [7] can be described thus: Cytotoxicity against human HeLa after 4 to 5 days by Cell-Titer Glo viability assay. Type of data set: cell-based. The following applies: HeLa cells.
Data set [8] has as its system Ebolavirus. The data set can be described thus: Antiviral activity against Ebolavirus H. sapiens-tc/COD/1995/Kikwit infected in rhesus monkey assessed as host survival at 10 mg/kg, iv administered as bolus dose. Type of data set: functional. The following applies: Orthoebolavirus, in Macaca mulatta.
The nature of data set [9]: Cytotoxicity against human HuH7 after 4 to 5 days by Cell-Titer Glo viability assay. It is filed as cell-based, Huh-7. As to conditions: HuH7 cells.
Data set [10] concerns Ebolavirus. Briefly: Antiviral activity against Ebolavirus infected in human HuH7 cells after 3 days by end point dilution assay. Type of data set: functional, cell-based. As to conditions: Orthoebolavirus, Huh-7, 72 h.
A short description of data set [11]: Half life in rhesus monkey plasma at 10 mg/kg, iv administered as bolus dose by LC-MS/MS analysis. It is filed as ADME, organism-based, Macaca mulatta.
For data set [12], the system named is Ebolavirus. The data set can be described thus: Antiviral activity against Ebolavirus infected in human HeLa cells after 48 hrs by immuno-staining assay. It is filed as functional, cell-based. As to conditions: Orthoebolavirus.
Data set [13] is described as follows: Half life in human primary macrophages assessed as nucleoside triphosphate level at 10 uM. The following applies: macrophage. It is filed as ADME, cell-based.
For data set [14], the system named is Ebolavirus. Briefly: Antiviral activity against Ebolavirus infected in human primary macrophages after 48 hrs by immuno-staining assay. Type of data set: functional. As to conditions: Orthoebolavirus.
The subject of data set [15] is HT-29. The data set can be described thus: Antitumor activity against human HT-29 cells xenografted in nude mouse assessed as tumor growth inhibition relative to control. It is filed as functional. A general note: In xenograft studies the graft and the host belong to different species.
For data set [16], the species on record is Homo sapiens. The data set can be described thus: Reduction in tumor growth in patient with solid malignancies. Type of data set: functional.
Data set [17] in a line: Half life in human. Type of data set: ADME.
The species named for data set [18] is Homo sapiens. The data set can be described thus: Cmax in human assessed as dFdCTP level. It is filed as ADME.
Data set [19] can be described thus: Fraction absorbed in human. Type of data set: ADME. The following applies: read-out: Fabs.
The nature of data set [20]: Drug recovery in human urine at 100 to 800 mg. It is filed as ADME. The following applies: read-out: Drug recovery.
The nature of data set [21]: Protein binding in human plasma. The following applies: read-out: PPB (converted). Type of data set: ADME, cell-free.
Data set [22] in a line: Fraction absorbed in po dosed portal vein cannulated dog. It is filed as ADME, organism-based, Canis lupus familiaris. As to conditions: in vivo, read-out: Fabs.
The test system of data set [23] is Plasma. The data set can be described thus: Protein binding in plasma of patient with end stage renal disease. Type of data set: ADME, cell-free. The following applies: human.
Data set [24] in a line: Renal clearance in human at 100 to 800 mg. It is filed as ADME.
Data set [25] is described as follows: Oral bioavailability in portal vein cannulated dog. It is filed as ADME, organism-based, Canis lupus familiaris. As to conditions: in vivo.
Data set [26] can be described thus: Half life in beagle dog hepatic S9 fraction.
Data set [27] can be described thus: Plasma concentration in dog at 5 mg/kg at 0.14 hrs post dose.
Data set [28] can be described thus: in vivo. As to conditions: dog, po, 20 mg/kg.
A short description of data set [29]: Half life in human MT2 cells by HPLC analysis.
Data set [30] can be described thus: Plasma concentration in dog at 5 mg/kg at 1 hr post dose.
A short description of data set [31]: in vivo. As to conditions: dog, po, 2 mg/kg.
Data set [32] in a line: Half life in beagle dog intestine.

Structures are written as SMILES.

In general, half-life refers to the time needed for the level to fall by half in the phase considered. The Tmax is the time from dosing to the highest level. In [1], `C[C@]1(F)[C@H](O)[C@@H](CO)O[C@H]1n1ccc(=O)[nH]c1=O` showed a half-life of 28.8 to 45 min. For the same compound, the Tmax in data set [2] lay in the range of 120 to 240 min.
The IC50 is the concentration that inhibits the measured activity by half. What is called EC50 is the concentration that produces a half-maximal response. In turn, `COC(=O)[C@H](C)NP(=O)(OC[C@H]1O[C@@H](n2cc(C)c(=O)[nH]c2=O)C[C@@H]1N=[N+]=[N-])Oc1ccc(OC)cc1` (stereo partly specified) displayed an IC50 in [3] of 100 µM. Further, the half-maximal effective concentration (EC50) in data set [4] worked out at 0.8 µM.
As usually defined, the CC50 is the concentration that lowers cell viability or growth by half. In the case of `CCC(CC)COC(=O)[C@H](C)N[P@](=O)(OC[C@H]1O[C@@](C#N)(c2ccc3c(N)ncnn23)[C@H](O)[C@@H]1O)Oc1ccccc1`, the CC50 in data set [5], in [7] and in [9] was over 20 µM in each case. Also, the survival at 3 mg/kg in [6] worked out at 50%. For the same compound, the survival at 10 mg/kg in [8] is 100%. Moreover, the EC50 worked out at 0.07 µM in data set [10], 0.14 µM in data set [12] and 0.086 µM in [14]. For the same compound, the half-life in data set [11] was 23.4 min. For the same compound, the t1/2 in [13] was 960 min.
By TGI is commonly meant the reduction of tumour growth relative to the control group. As to `O=c1[nH]cc(F)c(=O)[nH]1` [FLUOROURACIL], the TGI in [15] is 25%.
In general, Cmax refers to the maximum level reached in the sampled fluid or tissue. Consider `C[C@H](NP(=O)(OC[C@H]1O[C@@H](n2ccc(N)nc2=O)C(F)(F)[C@@H]1O)Oc1ccccc1)C(=O)OCc1ccccc1` (stereo partly specified) [FOSGEMCITABINE PALABENAMIDE], for which the inhibition of tumour growth (TGI) in [16] was over 30%. Also, the half-life in [17] is 498 min. Further, the Cmax in data set [18] came out at 475 µM.
On to `C[C@H](NP(=O)(OC[C@H]1O[C@@H](n2cc(F)c(=O)[nH]c2=O)C[C@@H]1O)Oc1cccc2ccccc12)C(=O)OCc1ccccc1` (stereo partly specified) [FOSIFLOXURIDINE NAFALBENAMIDE], for which the tumour growth inhibition (TGI) in data set [15] was determined as 47%.
Regarding `N#C[C@@]1(c2ccc3c(N)ncnn23)O[C@H](CO)[C@@H](O)[C@H]1O` [GS-441524], the CC50 in [5], in data set [7] and in [9] was over 20 µM throughout. In addition, the concentration giving a half-maximal response (EC50) was 1.5 µM in [10], over 20 µM in [12] and over 20 µM in data set [14].
A word on the bioavailability: it is the share of a dose that reaches the circulation, judged against a reference dose that is usually intravenous. As to `CC(C)OC(=O)[C@H](C)N[P@](=O)(OC[C@H]1O[C@@H](n2ccc(=O)[nH]c2=O)[C@](C)(F)[C@@H]1O)Oc1ccccc1` [SOFOSBUVIR], the Fa was over 80% in data set [19] and 36% in data set [22]. Also, in data set [20], the dose excreted worked out at 3.5%. In addition, in data set [21], the fraction unbound is 0.18. Moreover, the PPB in [23] came to 85%. Besides, the Tmax in [2] was in the range of 30 to 120 min. In [24], the CL renal turned out to be 238 mL/min. The bioavailability in data set [25] is 9.9%.
As to `CC(C)OC(=O)[C@H](C)N[P@](=O)(CO[C@H](C)Cn1cnc2c(N)ncnc21)Oc1ccccc1` [TENOFOVIR ALAFENAMIDE], the half-life stood at 31 min in data set [26], 28.3 min in data set [29], 92 min in data set [17] and 31 min in [32]. The compound further registered a concentration at […] in data set [27] of 1.58 µM. Further, the bioavailability in data set [28] was determined as 24.7%; in [31], 1.7%. The compound also registered a concentration at 1 h in data set [30] of 18 µM.
